Measurements reported in PMC12117998, “First Steps toward the Design of Peptides that Influence the Intracellular Palmitoylation Machinery” (Chembiochem, 2025).
No end group written: not given here.

What was measured:
HeLa cells = assay: Cellular uptake by flow cytometry; format: cell-based
Procedure: (§1) HeLa (90,000), MDA‐MB‐231 (120,000), and HFF‐1 (125,000) cells were seeded into a 24‐well plate. Cells were treated with the desired concentration of CF‐labeled peptide diluted in the appropriate serum‐free medium for 30 min at 37 °C and 5% CO2. Afterward, cells were washed once with PBS, detached from the plate using indicator‐free trypsin/EDTA and resuspended in indicator‐free culture medium. The cell mixture was measured on the Guava easyCyte flow cytometer (Merck) using the GRN‐B (520/30) detector.
CMA was synthesized and kindly provided by Azizi et al.^[ [33] ^] Cells were either treated with 20 μM CMA diluted in serum‐free media or 0.1% DMSO diluted in serum‐free media for 6 h at 37 °C with 5% CO2. Next, cells were washed once with serum‐free medium and 5 μM CF‐labeled peptides diluted in serum‐free medium were incubated for 30 min. Control cells were only treated with dimethylsulfoxide (DMSO) or 20 μM CMA.
For the preincubation assay, cells were either treated with 5 μM DC‐2 diluted in serum‐free medium or only serum‐free medium for 30 min at 37 °C and 5% CO2. Afterward, cells were washed once with serum‐free medium and treated with 5 μM CF‐labeled DC‐2 for 30 min at 37 °C and 5% CO2.
To block cell surface thiols, cells were incubated with either serum‐free medium or 1.2 mM 5,5′‐dithiobis‐(2‐nitrobenzoic acid) (Ellman's reagent, DTNB) diluted in serum‐free medium for 5 min. Next, untreated cells were treated with 1 μM of CF‐labeled DC‐2 or DC‐2dis diluted in serum‐free medium and DTNB‐pretreated cells with 1 μM of CF‐labeled DC‐2 or DC‐2dis and 1.2 mM DTNB in serum‐free medium for 30 min at 37 °C and 5% CO2 as described by Aubry et al.^[ [47] ^]

HFF‐1 cells [1] = assay: Cellular uptake by flow cytometry; format: cell-based, human; conditions: HFF‐1, 30 min, 5 μM CF‐labeled peptides, serum-free medium, 37 °C, n ≥ 3 (Figure 3F)
Procedure: as §1

MDA‐MB‐231 = assay: Cellular uptake by flow cytometry; format: cell-based; conditions: MDA‐MB‐231, 30 min, 5 μM CF‐labeled peptides, serum-free medium, 37 °C, n ≥ 3 (Figure 3E)
Procedure: as §1

HFF‐1 cells [2] = assay: Cell viability assay (resazurin); format: cell-based, human; conditions: HFF‐1, 24 h, CF‐labeled peptides, n = 3 (Figure 3C)
Procedure: HeLa (13,000), MDA‐MB‐231 (26,000), HFF‐1 (16,000) cells, mEGFP‐HRas (18,000), and SW480 and SW620 (15,000) were seeded into a 96‐well plate. Cells were treated with suitable peptide concentrations diluted in the corresponding serum‐free culture medium. After 24 h incubation under standard growth conditions, the cells were washed once with PBS. The positive control was treated for 10 min with 70% EtOH. To test the viability, cells were treated with a resazurin solution (In Vitro Toxicology Assay Kit, resazurin based, Sigma) and incubated for a further 1–2 h. The product resorufin was measured at 595 nm (λex = 550 nm) on an infinite M200 plate reader (Tecan) and normalized to the untreated negative control cells.

[3] = test system: EGFR signaling in SW480 cells; assay: EGFR‐related signaling cascade (immunoblot); format: cell-based, human; conditions: SW480, serum‐starved, 15 μM DC‐2 for 6 h
Procedure: (§2) SW480 and SW620 cells (1,200,000) were seeded into a 6‐well plate. The next day, cells were once washed with PBS and starved for 18 h with DMEM + 0.2% BSA. Next, 15 μM DC‐2 diluted in DMEM + 0.2% BSA was incubated with the cells for 6 h. Control wells were only treated with the starvation medium. Afterward, all wells were washed once with PBS and 200 ng ml^−1 EGF diluted in DMEM + 0.2% BSA was added for 15 min. Cells were again washed once with PBS and ice‐cold lysis buffer (25 mM Tris, 150 mM NaCl,1 mM TCEP, 2 mM EDTA, 1% Triton‐X‐100, pH 7.4) supplemented with Halt Protease and Phosphatase Inhibitor Cocktail (Thermo Fisher) was added to scrape the cells from the well. Lysates were incubated on ice for 30 min slightly shaking. After centrifugation for 30 min at 14,000 rpm at 4 °C, lysates were mixed with 4X SDS‐PAGE loading buffer (200 mM Tris‐HCl pH 6.8, 400 mM dithiothreitol, 8% SDS, 0.4% bromophenol blue, and 40% glycerol) and heated at 95 °C for 5 min. Protein samples were analyzed by SDS‐PAGE and immunoblotting. The following antibodies were used: anti‐EGFR (Cell Signaling Technology (CST) Cat#4267), anti‐pEGFR (CST Cat #3777), anti‐AKT (CST Cat#9272); anti‐pAKT (CST Cat#4060); anti‐ERK1/2 (CST Cat#4695); anti‐pERK1/2 (CST Cat#4370); anti‐β‐actin‐horseradish peroxidase (HRP) (Santa Cruz Biotechnology Cat# sc‐47778 HRP); or anti‐rabbit‐HRP conjugate (CST Cat#7074S). Images were cropped, processed, and quantified using the ImageLab software (BioRad).

[4] = test system: EGFR signaling in SW620 cells; assay: EGFR‐related signaling cascade (immunoblot); format: cell-based, human; conditions: SW620 (low EGFR expression), serum‐starved, 15 μM DC‐2 for 6 h, ± 200 ng ml^−1 EGF 15 min, n = 3
Procedure: as §2

MCF‐10 A breast spheroid = assay: Confocal time‐lapse imaging of spheroids; format: cell-based, human; conditions: 10‐day‐old MCF‐10 A spheroids, 10 μM CF‐labeled peptide, imaged every 45 s for 20 min, n ≥ 2 (Figure 7)
Procedure: Spheroids from single MCF10‐A cells were generated for 10 days as described in ref. [66]. For further analyses, spheroids were isolated from EHS matrix through incubation in 2 mL ice‐cold cell recovery solution (BD Biosciences) for 30 min (4 °C). Next, spheroids were washed with fresh EGF‐free medium and individually picked under a stereo microscope for seeding onto 35 mm cell culture dishes with microscopic glass bottoms (Cover Slip, 24 × 24 mm, #1.5 HP, Menzel‐Gläser). Spheroids adhered to glass substrates for 15 min (RT) and were subsequently covered with 0.9 mL fresh EGF‐free growth medium.
Live‐cell imaging was performed at 37 °C and 5% CO2 (cell incubator XL, Zeiss, Germany) with an inverse confocal laser scanning microscope (LSM880 with Airyscan detector) that used a 40x LD C‐Apochromat water immersion objective (NA 1.1, Zeiss). Before addition of peptides, control images were taken. Subsequently, peptide was added to a final concentration of 10 μM and spheroids immediately imaged every 45 s for 20 min. The observed plane was at the equatorial plane of a spheroid, where the diameter was largest. Images were taken with Fast Airyscan and subsequent processing using the ZEN 2.3 black software (Zeiss). Z‐stacks were taken right after the time series in 1 μm steps with the same microscopic settings.

Question: How did the “effect of blocking cell surface thiols (DTNB) on cellular uptake” value (HeLa cells; 5 min 1.2 mM DTNB, then 1 μM CF‐labeled peptide with DTNB 30 min, flow cytometry, n = 3 (Figure S8C)) turn out when “GLRKRLRKFRNKKMDHHCPW-NH2 [DC‐2, CPP sC18* fused to the DHHC motif derived from ZDHHC2/3/6/7/15/16/20]” was run?
Answer: Its value is “no significant difference”.

Question: And the “effect of pretreatment with unlabeled DC‐2 on peptide uptake” value (HeLa cells; 30 min 5 μM unlabeled DC‐2, then 30 min 5 μM CF‐DC‐2, flow cytometry, n = 3 (Figure S5E))?
Answer: Its value is “no significant difference in the quantity of peptide uptake”.

Question: And the “cellular uptake in medium lacking L‐cystine” value (HeLa cells; 30 min, 5 µM CF-DC-2, flow cytometry, n = 3 (Figure S8B))?
Answer: The value was “slightly increased”.

Question: And the “cellular uptake (in words)” value (HeLa cells; 30 min, 5 μM CF‐labeled peptides, serum-free medium, 37 °C, flow cytometry, n ≥ 3 (Figure 3D, 5C))?
Answer: The value was “internalized to a higher extent compared to DC‐4”.

Question: And the “cellular uptake (in words)” value (HFF‐1 cells [1])?
Answer: The value was “internalized to a higher extent compared to DC‐4”.

Question: What about the “cellular uptake (in words)” value (MDA‐MB‐231) of the same substance?
Answer: The value was “internalized to a higher extent compared to DC‐4”.

Question: And the “cytotoxicity (cell viability)” value (HFF‐1 cells [2])?
Answer: The value was “most active peptide”.

Question: And the “ERK and AKT phosphorylation, peptide only vs untreated” value ([3]; n = 3 (Figure 8B))?
Answer: The value was “slight increase in ERK and AKT phosphorylation”.

Question: And the “EGFR and ERK phosphorylation, peptide and EGF vs EGF only” value ([3]; then 200 ng ml^−1 EGF 15 min, n = 3 (Figure 8B,C))?
Answer: Its value is “increase in EGFR and ERK phosphorylation”.

Question: And the “effects on EGFR signaling” value [4]?
Answer: Its value is “no effects”.

Question: And the “infiltration of basement membrane (BM)‐covered spheroids” value (MCF‐10 A breast spheroid)?
Answer: Its value is “efficiently surpassed the BM and translocated into many cells”.
